Measurements as given in patent publication US9447083B2, “N-acylhydrazone derivatives for selective T cell inhibitor and anti-lymphoid malignancy drug” (CHONG KUN DANG PHARMACEUTICAL CORP., priority 2012, dated 2016).
Several values for one entry are separate records, joined by “and”; a condition that tells them apart may be missing. Equal entries are not always repeated.

Legend:
Molt4 = assay: Apoptosis of lymphoid malignancy cell lines: Molt4; format: cell-based; details: Homo sapiens, MOLT-4, 24 h, read-out: Administration Dose (mean ± SD, μmol/L) Lethal Dose 50 (Apoptosis)
Procedure: (§1) Each of the acute T cell leukemia cell lines Jurkat, Molt4 and CCRF-CEM, the acute B cell leukemia cell line Raji and the […] cell lines KMS11, KMS12BM, KMS26, KMS28BM, and IM9 was re-suspended in 10% FBS-containing RPMI medium at a concentration of 1.5×10^5 cells/mL, and 200 μL of each of the cell suspensions was cultured in a flat bottom 96-well plate (Costar). The acute NK cell lymphoma cell line NK-92MI was re-suspended in α-MEM medium (supplemented with 20% FBS, 1×MEM vitamine solution, 50 μM 2-mercaptoethanol and 1× penicillin/streptomycin) at a concentration of 1.5×10^5 cells/mL, and 200 μL of the cell suspension was cultured in a flat bottom 96-well plate. The cells in each well was treated with 10 μL of each of 0.1, 0.25, 0.5, 0.75 and 1 μM of the compound diluted with RPMI medium, followed by that the cells were incubated in a 5% CO2 incubator at 37° C. for 24 hours. In a vehicle control group, cells were treated with 10 μL of medium containing 0.05% dimetylsulfoxide (DMSO, Sigma).
(§2) The cells were collected, and then the apoptosis thereof was analyzed by a flow cytometer after staining with Annexin V-7-AAD. The incubated cells were collected, placed in a 5-mL FACS tube (BD Falcon) and washed with 1 mL of fluorescence activated cell sorting (FACS) buffer (1%. FBS and 0.1% sodium azaide in PBS). The cells were re-suspended in 0.1 mL of FACS buffer, followed by that the cells were treated and stained with phycoerythrin-Annexin V at room temperature for 10 minutes. After 10 minutes of staining, the cells were treated and stained with 7-AAD at room temperature for 5 minutes. The stained cells were suspended in 0.3 mL of FACS buffer, and then analyzed by a flow cytometer. […] Thus, compounds 065, 108, 229 and 457 of the present invention can be used as a novel anti-lymphoid malignancy drug.

[1] = system: acute graft-versus-host disease; assay: Acute graft-versus-host disease, mouse model of allogeneic bone marrow transplantation; format: in vivo; details: 25 mg/kg intraperitoneally daily for 10 days
Source text: Lymph nodes, spleens, both femurs and tibias were aseptically collected from normal C57BL/6 mice (8-12 week old, female, 20-23 g), and T cells were isolated from the lymph nodes and spleens in the same manner as described in Experimental Example 2 and were re-suspended in PBS at a concentration of 8×10^7 cells/mL. The femurs and tibias were cut at the ends, and the bone marrow was flushed from femurs and tibias with RPMI medium using a syringe (21G for femur and 26G for tibia) to extract the marrow, which was then suspended and passed through a cell strainer to make a single cell suspension. The bone marrow cell suspension was centrifuged at 1200 rpm for 5 minutes, and the supernatant was removed, then the cells were added to 1 mL of ACK lysis buffer and vortexed for 1 minute, followed by washing with RPMI medium. […] The incubated cell suspension was added with 5 mL of MACS buffer, centrifuged for 5 minutes, washed, and then re-suspended in 2 mL of MACS buffer. The suspended cells were placed in the autoMACS Pro Separator, and T cells bound to the CD90.2 microbeads were removed. The separated T cell-depleted bone marrow cells (TCD-BM) were washed with PBS and re-suspended in PBS at a concentration of 1×10^8 cells/mL. Normal BDF1 mice (10-12 week old, female, 20-23 g) were irradiated with 850 rad of γ radiation using an irradiator, and then 100 μL of a graft obtained by mixing the C57BL/6 mouse T cells and the TCD-BM at a ratio of 1:1 was injected into the tail vein of the BDF1 mice. In a group treated with compound 229 of the present invention, compound 229 was completely dissolved in a Cremophor EL-ethanol mixture (1:1, v/v) in an amount corresponding to 15% (v/v) of the administration volume, after which the compound solution was diluted in PBS, and the dilution was administered intraperitoneally to each mouse at a dose of 25 mg/kg daily for 10 days from the day of the graft injection. Meanwhile, Tacrolimus that is a currently clinically used immunosuppressive agent was administered to mice of another group in the same amount as compound 229 in order to compare the inhibitory effect on acute graft-versus-host disease, and mice of a vehicle control group were administered with 200 μL of a Cremophor EL-ethanol-PBS (7.5:7.5:85, v/v/v) in the same manner as the treated groups. Then, the survival of mice was monitored daily, and the severity of GVHD was assessed twice a week with clinical GVHD scoring system for each a decrease in weight loss, hunched posture, decreased activity, fur ruffling and skin lesions. Each parameters were scored on a 3-point (0 to 2) scale.

[2] = Toxicity test, single oral dose in ICR male mice; details: mouse, in vivo, read-out: lethal dose 50 (LD50)
Procedure: To ICR male mice, a suspension of Compound 229 in 0.5% methylcellulose solution was administered orally once by each doses of 10 mg/kg, 50 mg/kg and 100 mg/kg, and the survival rate and body weight of the mice were investigated for 7 days. After such administration, mouse death or not, clinical condition and body weight change were monitored. Hematology test and biochemical examination of blood were carried out.

KMS11 = assay: Apoptosis of lymphoid malignancy cell lines: KMS11; format: cell-based; details: Homo sapiens, KMS-11; KMS11, Multiple myeloma, 24 hours; read-out: Administration Dose (mean ± SD, μmol/L) Lethal Dose 50 (Apoptosis)
Procedure: as §1, with “In a vehicle control group, cells were treated with 10 μL of medium containing 0.05% dimetylsulfoxide (DMSO, Sigma).” left out
(§3) The cells were collected, and then the apoptosis thereof was analyzed by a flow cytometer after staining with Annexin V-7-AAD. The incubated cells were collected, placed in a 5-mL FACS tube (BD Falcon) and washed with 1 mL of fluorescence activated cell sorting (FACS) buffer (1%. FBS and 0.1% sodium azaide in PBS). […] The stained cells were suspended in 0.3 mL of FACS buffer, and then analyzed by a flow cytometer. […]

KMS12BM = assay: Apoptosis of lymphoid malignancy cell lines: KMS12BM; format: cell-based; details: Homo sapiens, KMS-12-BM, Multiple myeloma, 24 hours, read-out: Administration Dose (mean ± SD, μmol/L) Lethal Dose 50 (Apoptosis)
Procedure: as §1, with “In a vehicle control group, cells were treated with 10 μL of medium containing 0.05% dimetylsulfoxide (DMSO, Sigma).” left out
as §3

KMS28BM = assay: Apoptosis of lymphoid malignancy cell lines: KMS28BM; format: cell-based; details: KMS-28BM, Multiple myeloma, 24 hours, read-out: Administration Dose (mean ± SD, μmol/L) Lethal Dose 50 (Apoptosis)
Procedure: as §1, with “In a vehicle control group, cells were treated with 10 μL of medium containing 0.05% dimetylsulfoxide (DMSO, Sigma).” left out
as §3

IM9 = assay: Apoptosis of lymphoid malignancy cell lines: IM9; format: cell-based; details: Homo sapiens, IM-9, 24 h, read-out: Administration Dose (mean ± SD, μmol/L) Lethal Dose 50 (Apoptosis)
Procedure: as §1, §2

Jurkat = assay: Apoptosis of lymphoid malignancy cell lines (Annexin V / 7-AAD): Jurkat; format: cell-based; details: Homo sapiens, Acute T cell leukemia, 24 hours, read-out: Administration Dose (mean ± SD, μmol/L) Lethal Dose 50 (Apoptosis)
Procedure: as §1, §2

KMS26 = assay: Apoptosis of lymphoid malignancy cell lines: KMS26; format: cell-based; details: KMS-26; KMS26, Multiple myeloma, 24 hours; read-out: Administration Dose (mean ± SD, μmol/L) Lethal Dose 50 (Apoptosis)
Procedure: as §1, with “In a vehicle control group, cells were treated with 10 μL of medium containing 0.05% dimetylsulfoxide (DMSO, Sigma).” left out
as §3

KMS20 = assay: Apoptosis of lymphoid malignancy cell lines: KMS20; format: cell-based; details: KMS-20; KMS20, Multiple myeloma, 24 hours; read-out: Administration Dose (mean ± SD, μmol/L) Lethal Dose 50 (Apoptosis)

With Cc1cc(C)c(OCC(=O)N/N=C/c2ccc3cc[nH]c3c2)c(C2CCOC2)c1 (stereo not drawn) [Compound 229, (E)-N′-((1H-indol-6-yl)methylene)-2-(2,4-dimethyl-6-(tetrahydrofuran-3-yl)phenoxy)acetohydrazide] the EC50 (Molt4) was 1.3 ± 0.05 µmol/L, the “severity of GVHD (clinical scoring system)” value [1] was “slight symptoms of GVHD” and the survival rate ([1]; final (day 70), vehicle 10%) was 80%. For the same compound, the “mouse death, days after cell transplantation” value ([1]; vehicle from 29 days) was 35 days and 46 days, the LD50 at 7 days [2] was 100 mg/kg and the EC50 (KMS11) was 0.35 ± 0.09 µmol/L. It also gave an EC50 (KMS12BM) of 0.94 ± 0.09 µmol/L, an EC50 (KMS28BM) of 0.49 ± 0.08 µmol/L and an EC50 (IM9) of 0.9 ± 0.03 µmol/L. The EC50 (Jurkat) was 0.62 µmol/L, the EC50 (KMS26) was 1.31 ± 0.35 µmol/L and the EC50 (KMS20) was 0.74 ± 0.05 µmol/L.
